Read-outs that look alike come from different tables or passages of the source.
Legend:
[1] = 1H NMR kinetics in D2O/1 % [D6]DMSO, repeated 1:1 dilution
Description: In order to elucidate the fate of complex 4 c* and a possible concentration effect on its stability, additional NMR and MS experiments were carried out. […] Consequently, the sample was diluted 1:1 (3 mg mL^−1) and kinetics were measured over 24 h a second time. This step was repeated six times in total (after 24, 48, 72, 96, 168, and 192 h; resulting in a final concentration of 176 μM). […] It was impossible to measure 2D NMR sets throughout the experiment, due to the low sample concentration.

[2] = test system: human cancer cell lines CH1/PA‐1, SW480, A549; details: for IC50 values, in words: tested cancer cell lines
Description: Cytotoxicity of the compounds in monolayer cultures was determined by the colorimetric MTT assay (MTT=3‐(4,5‐dimethyl‐2‐thiazolyl)‐2,5‐diphenyl‐2H‐tetrazolium bromide). 1×10^3 CH1/PA‐1, 2×10^3 SW480 and 3×10^3 A549 cells were seeded in 100 μL supplemented MEM per well into 96‐well flat‐bottom microculture plates. […] After 96 h, the drug‐containing medium was replaced with 100 μL of RPMI 1640/MTT mixture [6 parts of RPMI 1640 medium (supplemented with 10 % heat‐inactivated fetal bovine serum and 4 mM L‐glutamine), 1 part of MTT solution in phosphate‐buffered saline (5 mg mL^−1)]. After incubation for 4 h, the mixture was replaced with 150 μL DMSO per well to dissolve the formazan product formed by viable cells. Optical densities at 550 nm (and at a reference wavelength of 690 nm) were measured with a microplate reader (ELx808, Bio‐Tek).

[3] = pH 5.8
Description: In order to investigate a possible pH influence on complex stability and to gather further insights into the instability of the osmium complexes, UHPLC kinetic measurements were carried out at pH values of 5.8, 6.2, 6.7, 7.2 and 7.9 in phosphate buffered solution via UHPLC. […] Due to pump pressure fluctuations the retention times tended to shift ±0.18 min.
Stock solutions containing the desired complex in DMSO (5 mM) were diluted with phosphate buffer to a final concentration of 50 μM compound in 1 % DMSO/20 mM buffer and directly analyzed via gradient UHPLC runs over 24 h. Phosphate buffers at pH 5.8, 6.2, 6.7, 7.2 and 7.9 were employed to ensure a constant pH value. The instrument was set to 0.6 mL min^−1 flow rate, 37 °C sampler temperature, 25 °C column compartment, 225 nm detection wavelength, 95 % MeOH in MiliQ water +0.1 % formic acid over 7.0 min.

SW480 [4] = assay: MTT cytotoxicity assay, monolayer culture; assay type: cell-based, human
A549 [5] = assay: MTT cytotoxicity assay, monolayer culture; assay type: cell-based, human; details: exposure time 96 h, means ± SDs
CH1/PA‐1 [6] = assay: MTT cytotoxicity assay, monolayer culture; assay type: cell-based, human; details: CH1/PA‐1, MTT assay, exposure time 96 h, means ± SDs
[7] = pH 7.2
Description: Stock solutions containing the desired complex in DMSO (5 mM) were diluted with phosphate buffer (pH 7.2) to a final concentration of […] compound in 1 % DMSO/20 mM buffer and directly analyzed by four different isocratic UHPLC runs (Δ=5 %). The lipophilicity parameters logkw and lipophilicity indices φ0 were calculated according to literature.7, 37

HCT‐116 = HCT‐116 multicellular spheroids, 96 h drug exposure
Description: (§1) A549, CH1/PA‐1 and SW480 cells were grown in MEM supplemented with 10 % fetal calf serum (FCS; from Biowest), 1 mM sodium pyruvate, 4 mM L‐glutamine and 1 % v/v nonessential amino acids (from 100×solution) and L‐glutamine. HCT‐116 cells were maintained in McCoy's 5a medium supplemented with 10 % FCS and L‐glutamine. Adherent monolayer cultures were grown in 75 cm^2 flasks. For spheroid culture, A549, CH1/PA‐1 and HCT‐116 cells were harvested from culture flasks by trypsinization, resuspended in their respective supplemented medium and seeded in ultra‐low attachment round‐bottom 96‐well plates (Corning Costar) at a density of 500 viable cells per well. Plates were incubated for 96 h to allow spheroid formation prior to use for the tests. All cultures were incubated in a humidified incubator at 37 °C with 5 % CO2.
(§2) Cytotoxicity in multicellular spheroids was determined by the fluorimetric resazurin assay. […] After incubation for 96 h, 20 μL of a 440 μM resazurin sodium salt solution in PBS were added to each well, and the plates were incubated for further 16 h. Fluorescence was measured with a Synergy HT reader (BioTek) with an excitation wavelength of 530 nm and emission wavelength of 590 nm. For both assays, at least three independent experiments (or two in case of poor activity) were performed, each with triplicates per concentration level, and the 50 % inhibitory concentrations (IC50) relative to untreated controls were interpolated from concentration‐effect curves.

A549 [8] = details: A549 multicellular spheroids, 96 h drug exposure
Description: as §1, §2

CH1/PA‐1 [9] = details: CH1/PA‐1 multicellular spheroids, 96 h drug exposure
Description: as §1, §2

SW480 [10] = assay: Cell cycle distribution, flow cytometry with propidium iodide; assay type: cell-based, human; details: for Cell cycle distribution G1, % / Cell cycle distribution G2/M, % / Cell cycle distribution S, %: 24 h, mean ± SD; for Relative change in cell cycle distribution G1, % / Relative change in cell cycle distribution G2/M, % / Relative change in cell cycle distribution S, %: difference to untreated control
Outline: (§3)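 CH1/PA-1 and SW480 cells were allowed to attach for 24 h, then exposed continuously to compounds for 24 h at 37 °C. Nuclei were stained overnight at 4 °C with propidium iodide (50 μg mL^−1) in Triton/citrate buffer. 5×10^3 cells were analysed by flow cytometry, with G1/S/G2/M fractions fitted by the Watson Pragmatic model.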

CH1/PA‐1 [11] = assay: as above; assay type: cell-based, human; details: for Cell cycle distribution G1, % / Cell cycle distribution G2/M, % / Cell cycle distribution S, %: 24 h, mean ± SD; for Relative change in cell cycle distribution G1, % / Relative change in cell cycle distribution G2/M, % / Relative change in cell cycle distribution S, %: difference to untreated control
Outline: as §3

[12] = test system: autochthonous colon cancer; parameters: method as in earlier work; details: rat model, well tolerable dose, cited from earlier work
[13] = SW480, MTT assay, exposure time 96 h, means ± SDs

## Cc1c([O-])c(=S)ccn1Cc1ccccc1.Cc1ccc(C(C)C)cc1.[Cl-].[Os+2] [Compound 4 c, Chlorido[1‐benzyl‐2‐methyl‐3‐(oxo‐κO)‐pyridine‐4(1H)‐thionato‐κS](η^6‐p‐cymene)osmium(II)]
[1]
  dilution at which formation of a second species became apparent: 375 µg/mL
[2]
  IC50 values, in words: low micromolar range
[3]
  stability by UHPLC: stable over 24 h
SW480 [4]; [13]
  IC50: 5600 ± 700 nM
A549 [5]
  IC50: 2200 ± 1200 nM
CH1/PA‐1 [6]
  IC50: 1300 ± 200 nM

## CC1=C2[O][Ir+]([Cl])[S]=C2C=CN1Cc1ccccc1.Cc1c(C)c(C)[c-](C)c1C [Compound 6 c, Chlorido[1‐benzyl‐2‐methyl‐3‐oxo‐κO‐pyridine‐4(1H)‐thionato‐κS](η^5‐1,2,3,4,5‐pentamethylcyclopentadienyl)iridium(III)]
[7]
  φ0 (chromatographic lipophilicity index): 6.22
HCT‐116
  IC50: 78000 ± 2000 nM
A549 [8]
  IC50: 136000 ± 5000 nM
CH1/PA‐1 [9]
  IC50: 114000 ± 3000 nM
[2]
  cytotoxicity relative to 3 c and 4 c: up to 20 times
  IC50 values, in words: high nanomolar range
SW480 [10]; SW480, 0.75 µM
  Cell cycle distribution G1, %: 40 ± 5%
  Cell cycle distribution G2/M, %: 24 ± 5%
  Cell cycle distribution S, %: 36 ± 2%
  Relative change in cell cycle distribution G1, %: -8%
  Relative change in cell cycle distribution G2/M, %: 5%
  Relative change in cell cycle distribution S, %: 3%
SW480 [10]; SW480, 1.25 µM
  Cell cycle distribution G1, %: 39 ± 13%
  Cell cycle distribution G2/M, %: 22 ± 3%
  Cell cycle distribution S, %: 38 ± 8%
  Relative change in cell cycle distribution G1, %: -9%
  Relative change in cell cycle distribution G2/M, %: 3%
  Relative change in cell cycle distribution S, %: 5%
SW480 [10]; SW480, 2.5 µM
  Cell cycle distribution G1, %: 43 ± 2%
  Cell cycle distribution G2/M, %: 19 ± 3%
  Cell cycle distribution S, %: 38 ± 5%
  Relative change in cell cycle distribution G1, %: -5%
  Relative change in cell cycle distribution G2/M, %: 0%
  Relative change in cell cycle distribution S, %: 5%
SW480 [10]; SW480 cells, at applicable concentrations
  decrease in G1 phase: < 9%
CH1/PA‐1 [11]; CH1/PA-1, 0.75 µM
  Cell cycle distribution G1, %: 30 ± 4%
  Cell cycle distribution G2/M, %: 32 ± 4%
  Cell cycle distribution S, %: 38 ± 3%
  Relative change in cell cycle distribution G1, %: -10%
  Relative change in cell cycle distribution G2/M, %: 8%
  Relative change in cell cycle distribution S, %: 2%
CH1/PA‐1 [11]; CH1/PA-1, 1.25 µM
  Cell cycle distribution G1, %: 30 ± 8%
  Cell cycle distribution G2/M, %: 33 ± 4%
  Cell cycle distribution S, %: 37 ± 6%
  Relative change in cell cycle distribution G1, %: -10%
  Relative change in cell cycle distribution G2/M, %: 9%
  Relative change in cell cycle distribution S, %: 1%
CH1/PA‐1 [11]; CH1/PA-1, 2.5 µM
  Cell cycle distribution G1, %: 27 ± 4%
  Cell cycle distribution G2/M, %: 34 ± 3%
  Cell cycle distribution S, %: 39 ± 4%
  Relative change in cell cycle distribution G1, %: -13%
  Relative change in cell cycle distribution G2/M, %: 10%
  Relative change in cell cycle distribution S, %: 3%
CH1/PA‐1 [11]; CH1/PA‐1 cells, 2.5 μM
  decrease in G1 phase: 13%
SW480 cells
  cellular concentration relative to 3 c: 11 times
  cellular concentration relative to 5 c: 2 times
SW480 cells; ICP‐MS, 2 h exposure, 50 μM
  Cellular accumulation: 1680±333 fg/cell
SW480 [4]; [13]
  IC50: 540 ± 70 nM
SW480 [4]; SW480, as listed in Table 3
  IC50: 540 ± 70 nM
A549 [5]
  IC50: 1100 ± 200 nM
CH1/PA‐1 [6]
  IC50: 570 ± 50 nM

## [Cl-].[Cl-].[Cl-].[Cl-].[Ru+3].c1ccc2[nH][nH+]cc2c1.c1ccc2[nH]ncc2c1.c1ccc2[nH]ncc2c1 [KP1019, indazolium trans‐[tetrachlorido‐bis(1H‐indazole)ruthenate(III)]]
[12]; autochthonous colon cancer
  reduction of tumor volume: up to 95%
[12]
  weight loss: no more than 6%

From paper PMC7217150, “Synthesis, Modification, and Biological Evaluation of a Library of Novel Water‐Soluble Thiopyridone‐Based Organometallic Complexes and Their Unexpected (Biological) Behavior” (Chemistry (Weinheim an Der Bergstrasse, Germany), 2020)
